Where “and” joins values, the source holds several entries; their conditions need not be identical. Equal entries are not always repeated. Toxic doses and inconclusive results are not listed. Rule as the data show it: active = T/C of 150% or more; inactive = T/C below 125%.
System: L1210 leukemia ip in BDF1 mice, survival T/C
Test: NCI In Vivo Anticancer Drug Screen. Data for tumor model L1210 Leukemia (intraperitoneal) in B6D2F1 (BDF1) mice
Conditions: endpoint: mean survival time, higher = longer survival
In short: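 Mice bearing the transplanted tumor received compound or vehicle. Survival of the treated group was divided by that of the vehicle-treated control group to give the ratio.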

[1] = dose: 100.0 mg/kg/injection, schedule: Q04DX002 (ip), vehicle: saline
[2] = dose: 200.0 mg/kg/injection, schedule: Q04DX002 (ip), vehicle: saline
[3] = dose: 100.0 mg/kg/injection, schedule: Q04DX003 (ip), vehicle: Klucel (hydroxypropylcellulose) (HPC)
[4] = dose: 200.0 mg/kg/injection, schedule: Q04DX003 (ip), vehicle: Klucel (hydroxypropylcellulose) (HPC)
[5] = dose: 400.0 mg/kg/injection, schedule: Q04DX003 (ip), vehicle: Klucel (hydroxypropylcellulose) (HPC)
[6] = dose: 1.56 mg/kg/injection, schedule: Q01DX009 (ip), vehicle: saline
[7] = dose: 3.12 mg/kg/injection, schedule: Q01DX009 (ip), vehicle: saline
[8] = dose: 50.0 mg/kg/injection, schedule: Q01DX009 (ip), vehicle: Klucel (hydroxypropylcellulose) (HPC)
[9] = dose: 100.0 mg/kg/injection, schedule: Q01DX009 (ip), vehicle: Klucel (hydroxypropylcellulose) (HPC)
[10] = dose: 200.0 mg/kg/injection, schedule: Q01DX009 (ip), vehicle: Klucel (hydroxypropylcellulose) (HPC)
[11] = dose: 100.0 mg/kg/injection, schedule: Q01DX009 (ip), vehicle: saline with Tween-80
[12] = dose: 200.0 mg/kg/injection, schedule: Q01DX009 (ip), vehicle: saline with Tween-80
[13] = dose: 400.0 mg/kg/injection, schedule: Q01DX009 (ip), vehicle: saline with Tween-80
[14] = dose: 100.0 mg/kg/injection, schedule: Q01DX001 (ip), vehicle: saline
[15] = dose: 200.0 mg/kg/injection, schedule: Q01DX001 (ip), vehicle: saline
[16] = dose: 400.0 mg/kg/injection, schedule: Q01DX001 (ip), vehicle: saline
[17] = dose: 100.0 mg/kg/injection, schedule: Q04DX003 (ip), vehicle: saline with Tween-80
[18] = dose: 200.0 mg/kg/injection, schedule: Q04DX003 (ip), vehicle: saline with Tween-80
[19] = dose: 400.0 mg/kg/injection, schedule: Q04DX003 (ip), vehicle: saline with Tween-80

Measured: T/C

C[N+]1(CCCl)CC[N+](C)(CCCl)CC1 (centres undefined)
inactive: dose: 100.0 mg/kg/injection, schedule: Q01DX001 (ip), vehicle: carboxymethylcellulose (CMC) 101 % of control | dose: 100.0 mg/kg/injection, schedule: Q01DX009 (ip), vehicle: carboxymethylcellulose (CMC) 97 % of control and 92 % of control | dose: 100.0 mg/kg/injection, schedule: Q01DX009 (ip), vehicle: saline 97 % of control | dose: 100.0 mg/kg/injection, schedule: Q04DX002 (ip), vehicle: carboxymethylcellulose (CMC) 97 % of control | [1] 112 % of control | dose: 100.0 mg/kg/injection, schedule: Q04DX003 (ip), vehicle: carboxymethylcellulose (CMC) 97 % of control | dose: 200.0 mg/kg/injection, schedule: Q01DX001 (ip), vehicle: carboxymethylcellulose (CMC) 105 % of control | dose: 200.0 mg/kg/injection, schedule: Q01DX009 (ip), vehicle: carboxymethylcellulose (CMC) 97 % of control and 100 % of control | dose: 200.0 mg/kg/injection, schedule: Q01DX009 (ip), vehicle: saline 101 % of control | dose: 200.0 mg/kg/injection, schedule: Q04DX002 (ip), vehicle: carboxymethylcellulose (CMC) 100 % of control and 103 % of control | [2] 105 % of control | dose: 200.0 mg/kg/injection, schedule: Q04DX003 (ip), vehicle: carboxymethylcellulose (CMC) 100 % of control | dose: 400.0 mg/kg/injection, schedule: Q01DX001 (ip), vehicle: carboxymethylcellulose (CMC) 97 % of control | dose: 400.0 mg/kg/injection, schedule: Q01DX009 (ip), vehicle: carboxymethylcellulose (CMC) 101 % of control and 91 % of control | dose: 400.0 mg/kg/injection, schedule: Q01DX009 (ip), vehicle: saline 101 % of control | dose: 400.0 mg/kg/injection, schedule: Q04DX002 (ip), vehicle: carboxymethylcellulose (CMC) 93 % of control | dose: 400.0 mg/kg/injection, schedule: Q04DX003 (ip), vehicle: carboxymethylcellulose (CMC) 103 % of control

NC(=O)C1C(=O)OC2(CCCC2)C1c1ccccc1 (centres undefined)
inactive: [3] 101 % of control | [4] 93 % of control | [5] 97 % of control

CCN(CC)CC(OC(=O)C(c1ccccc1)c1ccccc1)C(COC)OC (centres undefined)
inactive: dose: 55.0 mg/kg/injection, schedule: Q01DX Z (ip), vehicle: saline 109 % of control | dose: 83.0 mg/kg/injection, schedule: Q01DX Z (ip), vehicle: saline 96 % of control | dose: 125.0 mg/kg/injection, schedule: Q01DX Z (ip), vehicle: saline 91 % of control

O=[N+]([O-])c1ccc(N2CCOCC2)c2c1no[n+]2[O-]
inactive: dose: 12.5 mg/kg/injection, schedule: Q04DX003 (ip), vehicle: saline with Tween-80 108 % of control | dose: 25.0 mg/kg/injection, schedule: Q04DX003 (ip), vehicle: saline with Tween-80 118 % of control | dose: 50.0 mg/kg/injection, schedule: Q04DX003 (ip), vehicle: saline with Tween-80 116 % of control

COc1ccc2c(c1)CCCN2CCC#N
inactive: dose: 50.0 mg/kg/injection, schedule: Q04DX003 (ip), vehicle: other 106 % of control | dose: 100.0 mg/kg/injection, schedule: Q04DX003 (ip), vehicle: other 92 % of control | dose: 200.0 mg/kg/injection, schedule: Q04DX003 (ip), vehicle: other 108 % of control | dose: 400.0 mg/kg/injection, schedule: Q04DX003 (ip), vehicle: other 99 % of control

CC[CH2][Sn]([Br])([CH2]CC)[CH2]CC
inactive: [6] 95 % of control | [7] 102 % of control

NC(Cc1cnc(N=Nc2ccc(S(=O)(=O)N(CCCl)CCCl)cc2)[nH]1)C(=O)O (centres undefined)
inactive: [8] 93 % of control | [9] 90 % of control | [10] 97 % of control

C=CC1CN(CCc2cc3ccccc3[nH]2)CCC1CC(=O)OCC (centres undefined)
inactive: [11] 91 % of control | [12] 96 % of control | [13] 97 % of control

O=C(N/N=C/c1cccc([N+](=O)[O-])c1)c1ccc(Cl)cc1
inactive: dose: 50.0 mg/kg/injection, schedule: Q01DX009 (ip), vehicle: saline with Tween-80 96 % of control | [11] 89 % of control | [12] 89 % of control

FC(F)(F)c1cc(Br)c2ccc3ncccc3c2n1
inactive: dose: 100.0 mg/kg/injection, schedule: Q04DX002 (ip), vehicle: saline with Tween-80 111 % of control | dose: 200.0 mg/kg/injection, schedule: Q04DX002 (ip), vehicle: saline with Tween-80 107 % of control | dose: 400.0 mg/kg/injection, schedule: Q04DX002 (ip), vehicle: saline with Tween-80 96 % of control

COC(=O)C(C)C(=O)O (centres undefined)
inactive: [1] 90 % of control | [2] 97 % of control | dose: 400.0 mg/kg/injection, schedule: Q04DX002 (ip), vehicle: saline 90 % of control

FC(F)(F)c1ccc2c(c1)N(CCCN1CCN(CCOCCCl)CC1)c1ccccc1S2
inactive: dose: 0.19 mg/kg/injection, schedule: Q01DX009 (ip), vehicle: saline 104 % of control | dose: 0.39 mg/kg/injection, schedule: Q01DX009 (ip), vehicle: saline 94 % of control | dose: 0.78 mg/kg/injection, schedule: Q01DX009 (ip), vehicle: saline 98 % of control | dose: 1.17 mg/kg/injection, schedule: Q04DX003 (ip), vehicle: saline 101 % of control | [6] 107 % of control | dose: 2.34 mg/kg/injection, schedule: Q04DX003 (ip), vehicle: saline 95 % of control | [7] 89 % of control | dose: 4.68 mg/kg/injection, schedule: Q04DX003 (ip), vehicle: saline 98 % of control | dose: 6.25 mg/kg/injection, schedule: Q04DX003 (ip), vehicle: saline 108 % of control | dose: 9.9 mg/kg/injection, schedule: Q01DX001 (ip), vehicle: saline 97 % of control | dose: 12.5 mg/kg/injection, schedule: Q04DX003 (ip), vehicle: saline 119 % of control | dose: 15.0 mg/kg/injection, schedule: Q01DX001 (ip), vehicle: saline 102 % of control | dose: 22.5 mg/kg/injection, schedule: Q01DX001 (ip), vehicle: saline 103 % of control | dose: 25.0 mg/kg/injection, schedule: Q04DX003 (ip), vehicle: saline 122 % of control | dose: 50.0 mg/kg/injection, schedule: Q04DX003 (ip), vehicle: saline 90 % of control

CC(=O)NCC(O)c1ccccc1 (centres undefined)
inactive: [14] 94 % of control | [15] 100 % of control | [16] 91 % of control

COC/C(C)=C/Cl
inactive: dose: 100.0 mg/kg/injection, schedule: Q01DX001 (ip), vehicle: acetone 102 % of control | dose: 200.0 mg/kg/injection, schedule: Q01DX001 (ip), vehicle: acetone 100 % of control | dose: 400.0 mg/kg/injection, schedule: Q01DX001 (ip), vehicle: acetone 96 % of control

Cc1ccc(C(CS(=O)(=O)c2ccc(C)cc2)c2ccccc2)cc1 (centres undefined)
inactive: [14] 92 % of control | [15] 103 % of control | [16] 94 % of control

Cc1ccc(C(=O)C(C)CN2CCCCC2)cc1 (centres undefined)
inactive: [14] 97 % of control | [15] 94 % of control

CC(C)CCC1(c2ccccc2)C(=O)NC(=O)NC1=O
inactive: [14] 92 % of control

CSc1ccc(N=Cc2ccc3c(c2)OCO3)cc1
inactive: [8] 103 % of control | [9] 97 % of control | [3] 102 % of control | [10] 99 % of control | [4] 107 % of control | [5] 94 % of control

O=C(NC1=NCCS1)C(=O)NC1=NCCS1
inactive: [17] 105 % of control | [18] 100 % of control | [19] 97 % of control

NC(=O)c1ccn(C2OC(CO)C(O)C2O)n1 (centres undefined)
inactive: dose: 50.0 mg/kg/injection, schedule: Q01DX005 (ip), vehicle: water 105 % of control | dose: 100.0 mg/kg/injection, schedule: Q01DX005 (ip), vehicle: water 102 % of control | dose: 200.0 mg/kg/injection, schedule: Q01DX005 (ip), vehicle: water 102 % of control

Cc1cccc(NC(=O)NCCOC(=O)OCCNC(=O)Nc2cccc(C)c2C)c1C
inactive: [11] 97 % of control | [17] 91 % of control | [12] 98 % of control | [18] 91 % of control | [13] 97 % of control | [19] 106 % of control

CC(=O)Nc1cc([N+](=O)[O-])ccc1C
inactive: [9] 100 % of control | [10] 105 % of control
